How the values were obtained:
VEEV TC83 = experiment: microbe, parasite or virus in culture; format: cell-based; conditions: Venezuelan equine encephalitis virus, Vero 76, 48 h, read-out: VEEV TC83 EC50 nM
WEEV California = experiment: microbe, parasite or virus in culture; format: cell-based; conditions: Western equine encephalitis virus, Vero 76, 48 h, read-out: WEEV California EC50 nM

| Structure (SMILES) | EC50 (VEEV TC83) [nM] | EC50 (WEEV California) [nM] |
| --- | --- | --- |
| O=c1c2cc([N+](=O)[O-])ccc2nc([C@@H]2CCCN2)n1-c1ccccc1 [Example 5, (S)-6-nitro-3-phenyl-2-(pyrrolidin-2-yl) quinazolin-4 (3H)-one] | 151 to 500 | 151 to 500 |
| O=c1c2cc([N+](=O)[O-])ccc2nc([C@H]2CCCN2)n1-c1ccccc1 [Example 2, (R)-6-nitro-3-phenyl-2-(pyrrolidin-2-yl) quinazolin-4 (3H)-one] | 1 to 50 | 51 to 150 |
| COc1ccc(-n2c([C@H]3CCCN3)nc3c(-c4cncnc4)cc([N+](=O)[O-])cc3c2=O)cc1F [Example 88, (R)-3-(3-fluoro-4-methoxyphenyl)-6-nitro-8-(pyrimidin-5-yl)-2-(pyrrolidin-2-yl) quinazol-in-4 (3H)-one] | 1 to 50 | 1 to 50 |
| COc1ccc(-n2c([C@@H]3CCCN3)nc3c(C)cc([N+](=O)[O-])cc3c2=O)cc1F [Example 69, (S)-3-(3-fluoro-4-methoxyphenyl)-8-methyl-6-nitro-2-(pyrrolidin-2-yl) quinazolin-4 (3H)-one] | 151 to 500 | 51 to 150 |
| COc1ccc(-n2c([C@H]3CCCN3C)nc3c(C)cc([N+](=O)[O-])cc3c2=O)cc1F [Example 71, (R)-3-(3-fluoro-4-methoxyphenyl)-8-methyl-2-(1-methylpyrrolidin-2-yl)-6-nitroquinazolin-4 (3H)-one] | 51 to 150 | 51 to 150 |
| COc1c(F)cc(-n2c(C3CCCN3)nc3c(-c4ccnc(C)c4)cc(C#N)cc3c2=O)cc1F (centres unmarked) [Example 155, 3-(3,5-Difluoro-4-methoxyphenyl)-8-(2-methylpyridin-4-yl)-4-oxo-2-(pyrrolidin-2-yl)-3,4-dihydroquinazoline-6-carbonitrile] | 1 to 50 | 1 to 50 |
| COc1ccc(-n2c([C@@H]3CCCN3)nc3c(C(F)(F)F)cc(C#N)cc3c2=O)cc1F [Example 77, (S)-3-(3-fluoro-4-methoxyphenyl)-4-oxo-2-(pyrrolidin-2-yl)-8-(trifluoromethyl)-3,4-dihydroquinazoline-6-carbonitrile] | 51 to 150 | 1 to 50 |
| COc1ccc(-n2c([C@H]3CCCN3)nc3c(N4CCOCC4)cc(C#N)cc3c2=O)cc1F [Example 113, (R)-3-(3-fluoro-4-methoxyphenyl)-8-morpholino-4-oxo-2-(pyrrolidin-2-yl)-3,4-dihydroquinazoline-6-carbonitrile] | 1 to 50 | 51 to 150 |
| COc1ccc(-n2c([C@@H](C)N(C)C)nc3ccc([N+](=O)[O-])cc3c2=O)cc1 [Example 209, (R)-2-(1-(dimethylamino)ethyl)-3-(4-methoxyphenyl)-6-nitroquinazolin-4 (3H)-one] | 51 to 150 | 151 to 500 |
| COc1ccc(-n2c([C@H]3C[C@H](O)CN3)nc3c(-c4ccc(C)nc4)cc(C#N)cc3c2=O)cc1F [Example 122, 3-(3-fluoro-4-methoxyphenyl)-2-((2R,4S)-4-hydroxypyrrolidin-2-yl)-8-(6-methylpyridin-3-yl)-4-oxo-3,4-dihydroquinazoline-6-carbonitrile] | 1 to 50 | 51 to 150 |
| COc1ccc(-n2c(C3CCCN3)nc3c(-c4ccc(-c5ccccc5)nc4)cc(C#N)cc3c2=O)cc1F (centres unmarked) [Example 133, 3-(3-fluoro-4-methoxyphenyl)-4-oxo-8-(6-phenylpyridin-3-yl)-2-(pyrrolidin-2-yl)-3,4-dihydroquinazoline-6-carbonitrile] | 1 to 50 | 1 to 50 |
| COc1ccc(-n2c([C@H]3CCCN3)nc3ccc([N+](=O)[O-])cc3c2=O)cc1F [Example 24, (R)-3-(3-fluoro-4-methoxyphenyl)-6-nitro-2-(pyrrolidin-2-yl) quinazolin-4 (3H)-one] | 1 to 50 | 1 to 50 |
| O=c1c2cc([N+](=O)[O-])ccc2nc([C@H]2CCCN2)n1-c1cccc(OC(F)(F)F)c1 [Example 45, (R)-6-nitro-2-(pyrrolidin-2-yl)-3-(3-(trifluoromethoxy)phenyl)quinazolin-4 (3H)-one] | > 1000 | > 1000 |
